Measurements as given in paper PMC11714206, “Massively Parallel Screening of Toll/Interleukin‐1 Receptor (TIR)‐Derived Peptides Reveals Multiple Toll‐Like Receptors (TLRs)‐Targeting Immunomodulatory Peptides” (Advanced Science, 2024).

Target: T1, MAL^TIR (Homo sapiens, UniProt P58753)
T1 construct: MAL (residues 79–221); 6xHis; made in house; host or cells: E. coli BL21 (DE3)
Experiment: T‐Surf phage library (P8 and P3) selection against MAL^TIR, four rounds, NGS read counts
Format: binding
Conditions: for P8_MAL Rank (after) / P8_MAL Rank (before): P8 library; for P3_MAL Rank (after) / P3_MAL Rank (before): P3 library; for Population: 4th round of selection against MAL TIR, share of NGS reads
In short: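 Read counts come from NGS of phage pools enriched over four selection rounds on the plate‐coated TIR domain (5 µg mL^−1). Each round: 1 h phage binding at room temperature after 0.2% BSA blocking, Tween washes, acid elution, amplification in E. coli TG1 with M13KO7 helper.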

[1] = selection against MAL, rank by count after grouping
[2] = selection against MAL, rank by count before grouping
[3] = 4R selection against MAL, rank after grouping
[4] = 4R selection against MAL, rank before grouping
[5] = selection against MAL, rank after grouping
[6] = selection against MAL, rank before grouping
[7] = P8_MAL: rank by count after grouping
[8] = P8_MAL: rank by count before grouping
[9] = selection against MAL TIR, rank by count after grouping
[10] = selection against MAL TIR, rank by count before grouping
[11] = P3_MAL: rank by count after grouping
[12] = P3_MAL: rank by count before grouping
[13] = P3_MAL pool: P3 T-Surf phage library
[14] = P8_MAL pool: P8 T-Surf phage library

T1 sequence (P58753 79-221): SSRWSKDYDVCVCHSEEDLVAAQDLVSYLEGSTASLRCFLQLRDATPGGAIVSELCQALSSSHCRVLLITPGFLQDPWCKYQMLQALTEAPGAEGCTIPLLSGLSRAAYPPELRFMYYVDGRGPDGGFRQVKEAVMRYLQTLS

WFYVRLVILALRDNNM
P8_MAL Rank (after) [1]: 690 | P8_MAL Rank (before) [2]: 1128

WFFQEKVKIFEARKTI
P3_MAL Rank (after) [3]: 669 | P3_MAL Rank (before) [4]: 1224

SAFVAPLSEALNQRAL
P3_MAL Rank (after) [3]: 675 | P3_MAL Rank (before) [4]: 2980

SFFDRLVSVILRDTNV
P8_MAL Rank (after) [1]: 701 | P8_MAL Rank (before) [2]: 1441

WFYERLVSLILRVTKI
P8_MAL Rank (after) [5]: 553 | P8_MAL Rank (before) [6]: 1199

FLNFRAWMCVTIFWA
P3_MAL Rank (after) [1]: 677 | P3_MAL Rank (before) [2]: 1176

YFLHSLLISLTDPAYI
Rank (after) [7]: 452 | Rank (before) [8]: 1510

RNNFLGYLYQALYRIG
P8_MAL Rank (after) [3]: 604 | P8_MAL Rank (before) [4]: 2263

RLQEWRETLCQGHSRV
P3_MAL Rank (after) [3]: 650 | P3_MAL Rank (before) [4]: 2550

WFYEFLVFLILRDTKV
P8_MAL Rank (after) [9]: 251 | P8_MAL Rank (before) [10]: 1143

GFLSHLRHHLQAKDH
Rank (after) [11]: 127 | Rank (before) [12]: 275

WFYEPLVSLILRDTKL
P8_MAL Rank (after) [9]: 236 | P8_MAL Rank (before) [10]: 1293

RNFVAYLFQALAKKGS
P8_MAL Rank (after) [3]: 591 | P8_MAL Rank (before) [4]: 2191

AVRYTILINLTHTTNF
Rank (after) [7]: 462 | Rank (before) [8]: 1955

RDFVAYLFQALANKGL
P8_MAL Rank (after) [3]: 640 | P8_MAL Rank (before) [4]: 2171

LFFYESLKHLLRIDCR
P8_MAL Rank (after) [3]: 646 | P8_MAL Rank (before) [4]: 2170

DTILKKGEGIAPELLR
P8_MAL Rank (after) [3]: 659 | P8_MAL Rank (before) [4]: 1999

RNNFIGHLYQAPNQSV
P8_MAL Rank (after) [1]: 699 | P8_MAL Rank (before) [2]: 2283

TFLGHLHNALVQAGNH
Rank (after) [7]: 432 | Rank (before) [8]: 2608

AFTGHLHRYLVQRGV
Rank (after) [11]: 121 | Rank (before) [12]: 408

YAFTGHLRRYLVLRGV
P3_MAL Rank (after) [5]: 509 | P3_MAL Rank (before) [6]: 1369

SSFRDGLWRLLELRKK
P3_MAL Rank (after) [9]: 269 | P3_MAL Rank (before) [10]: 3129

TFLRHLYNALVQAGLH
P8_MAL Rank (after) [9]: 245 | P8_MAL Rank (before) [10]: 2627

NRWRNALTAAANLSGW
Population [13]: 0.00376%

HFWWIPLKSILGETSF
P8_MAL Rank (after) [3]: 632 | P8_MAL Rank (before) [4]: 2423

RGFLSHLRHYLQAKAH
P3_MAL Rank (after) [5]: 552 | P3_MAL Rank (before) [6]: 2430

SPQEQDGFWVRLIEAL
Rank (after) [7]: 466 | Rank (before) [8]: 2527

RNFVRICFRRWRIKA
P8_MAL Rank (after) [1]: 687 | P8_MAL Rank (before) [2]: 2235

RNFGVYLFQALANKGI
Rank (after) [7]: 409 | Rank (before) [8]: 2238

WFYERLASLILRDTKV
Population [14]: 0.0034%

AFLYTFLINLTHPTIH
Rank (after) [7]: 161 | Rank (before) [8]: 852

WSYERLVSLILRDTKV
Population [14]: 0.0034%

MSHLYQGLKNRGIFT
Rank (after) [11]: 117 | Rank (before) [12]: 254

PNLRTKGLNYRMRTKT
Rank (after) [11]: 415 | Rank (before) [12]: 2736

LVAHEISKKMKIFATI
Rank (after) [7]: 182 | Rank (before) [8]: 923

YFLHFLLFSRLETEYI
Population [14]: 0.00278%

WFYERLVSLILRDTKE
Population [14]: 0.00309%

WFYESLVSMIMRDTKV
P8_MAL Rank (after) [9]: 213 | P8_MAL Rank (before) [10]: 1303

AFLYTFLVNLTHPTMF
Rank (after) [7]: 468 | Rank (before) [8]: 1823

RGLLSHLRHHLLGKDH
Rank (after) [11]: 450 | Rank (before) [12]: 2429

WFMMKFRTVLDRVPEV
P8_MAL Rank (after) [5]: 482 | P8_MAL Rank (before) [6]: 1378

YAFTGHVDRYLVQRGV
P3_MAL Rank (after) [9]: 285 | P3_MAL Rank (before) [10]: 1360

DWFLSKLSQHILKKG
Rank (after) [11]: 393 | Rank (before) [12]: 1892

PNLRTKVLDYLLRTKT
Rank (after) [11]: 406 | Rank (before) [12]: 2702

LSVESWRQALEKAGQL
Rank (after) [11]: 392 | Rank (before) [12]: 2181

PNLRTKVLNSLMSTKT
Rank (after) [11]: 477 | Rank (before) [12]: 2709

SLQYAHLRWLGIRAFL
P8_MAL Rank (after) [9]: 206 | P8_MAL Rank (before) [10]: 2523

AFYWAQLNSVLRDTTM
P8_MAL Rank (after) [5]: 492 | P8_MAL Rank (before) [6]: 1785

WFWVKLLYALTYRPGI
P3_MAL Rank (after) [3]: 651 | P3_MAL Rank (before) [4]: 1227

SSFREGLWRLPELSKK
Population [13]: 0.00413%

SEFIQKIILCMNQKIV
Rank (after) [7]: 155 | Rank (before) [8]: 2458

WDDPWFWDKLHYAMPR
Rank (after) [7]: 463 | Rank (before) [8]: 1422

PNLSNKVMNYLMRTQT
P3_MAL Rank (after) [3]: 634 | P3_MAL Rank (before) [4]: 2753

AFFWAQPKSVLGNPTV
Rank (after) [7]: 103 | Rank (before) [8]: 1645

HHTGSYGQALAEHEKR
P3_MAL Rank (after) [3]: 584 | P3_MAL Rank (before) [4]: 2814

AFLNTLLKNLTRPPNF
P8_MAL Rank (after) [5]: 562 | P8_MAL Rank (before) [6]: 1912

RAFVADLDEALKQRAL
Rank (after) [11]: 182 | Rank (before) [12]: 2432

AFCIRRLRVKALRFS
P3_MAL Rank (after) [5]: 569 | P3_MAL Rank (before) [6]: 1783

YFLNFLLFSRPETDYI
Rank (after) [7]: 457 | Rank (before) [8]: 1516

RGFLEPLRHHLQAKEQ
P3_MAL Rank (after) [3]: 649 | P3_MAL Rank (before) [4]: 2355

WF*ERLVSLILRDTKV
Population [14]: 0.00278%

LFFWDSLKQLMRSDGR
P8_MAL Rank (after) [9]: 283 | P8_MAL Rank (before) [10]: 2070

YFLQFLVFRRLGNEYV
P8_MAL Rank (after) [3]: 656 | P8_MAL Rank (before) [4]: 1513

AFLYTFLINLTHPTNS
Population [14]: 0.0034%

AFFCTQLKSVLGNPTI
P8_MAL Rank (after) [3]: 587 | P8_MAL Rank (before) [4]: 1588

TFLGHLLNALVQTDIL
P8_MAL Rank (after) [5]: 508 | P8_MAL Rank (before) [6]: 2607

LFFWESLKQLLRSVGH
P8_MAL Rank (after) [5]: 538 | P8_MAL Rank (before) [6]: 2102

ELFLDQVLAVLVKPTM
P8_MAL Rank (after) [5]: 530 | P8_MAL Rank (before) [6]: 2042

NQWRNALTAASNLSIW
Rank (after) [11]: 169 | Rank (before) [12]: 3353

NLWRNALTVAANLSGW
P3_MAL Rank (after) [5]: 540 | P3_MAL Rank (before) [6]: 3318

WFYERLVSLIRRDTQV
Rank (after) [7]: 106 | Rank (before) [8]: 1220

HFFWFKLKSILGETSF
P8_MAL Rank (after) [5]: 542 | P8_MAL Rank (before) [6]: 2394

LVAHEISKKMNIFATV
P3_MAL Rank (after) [1]: 764 | P3_MAL Rank (before) [2]: 2101

SSFRERLWRLLELRKK
Rank (after) [11]: 128 | Rank (before) [12]: 3190

CFLFTVRSAIYAMNPA
Rank (after) [7]: 445 | Rank (before) [8]: 1109

YAFTGHLHRYLVQRKQI
P3_MAL Rank (after) [1]: 752 | P3_MAL Rank (before) [2]: 1404

AFLYTFLKNLMRKPTF
Rank (after) [7]: 422 | Rank (before) [8]: 1874

QLIQHWIELHQHQLHL
P8_MAL Rank (after) [3]: 630 | P8_MAL Rank (before) [4]: 2348

WFYKRLVSLILRDTKV
Population [14]: 0.00402%

SKDYAQSAWALEELTK
Population [13]: 0.0436% | Rank (after) [11]: 99 | Rank (before) [12]: 99

RLRKWKEALQQFHSWV
Rank (after) [11]: 139 | Rank (before) [12]: 2548

AFLYTFLNNLTHTTNI
P8_MAL Rank (after) [5]: 536 | P8_MAL Rank (before) [6]: 1872
